Data taken from patent publication US9895337B2, “Compositions containing monoacetyldiacylglycerol compound as an active ingredient for preventing or treating rheumatoid arthritis” (ENZYCHEM LIFESCIENCES CORPORATION, priority 2013, dated 2018).

What was measured:
[1] = system: collagen-induced arthritis in male DBA/1J mouse; assay: Arthritis animal model induced by bovine type II collagen; type: in vivo; conditions: for histopathological arthritis score of knee joint: knee joint of both hind legs, vs negative control (FIG. 6); for histopathological arthritis score of knee joint / concentration of IL-6 in serum: EC-18 125, 500, 2,000 mg/kg oral, Remicade 20 mg/kg i.p., methotrexate 2.5 mg/kg oral; for concentration of IL-6 in serum: serum at day of tissue excision, once a day for five weeks, vs negative control (FIG. 4)
Protocol: For arthritis animal model experiment, arthritis was induced in male DBA/1J mouse by administering bovine type II collagen to the mouse. Efficacy of EC-18 for treating (or improving) arthritis was evaluated by repeatedly administering EC-18 to the mouse orally. For comparison, Remicade (positive control 1) was administered intraperitoneally and methotrexate (positive control 2) was administered orally. The experiment included seven groups: normal group (G1), negative control (G2), 125 mg/kg, 500 mg/kg and 2,000 mg/kg of EC-18 (EC-18 treatment groups, G3, G4, G5), 20 mg/kg of Remicade (Positive control 1, G6) and 2.5 mg/kg of Methotrexate (Positive control 2, G7). Each group consists of 10 mice. Olive oil was administered to normal group (G1) and negative control group (G2) as an excipient. In all groups, administration was made once a day for five weeks (a total of 35 administrations). Remicade (G6) was administered intraperitoneally, whereas EC-18, methotrexate and olive oil were administered orally in force. For all groups except normal Group (G1), arthritis was induced by immunizing animals twice with bovine type II collagen and complete Freund's adjuvant or incomplete Freund's adjuvant emulsion. During the observation period, common arthritis symptoms were observed once a day, weigh measured once a week, arthritic score evaluation made with the naked eye twice a week, foot thickness measured twice a week.

STAT-1 = assay: Inhibition of PMA-induced STAT-1 phosphorylation in NK-92 cells (western blot); type: cell-based, Human; conditions: PMA-induced (FIG. 2B)
Protocol: Human cell lines NK-92, U937, A549 and HepG2 (American Type Culture Collection, ATCC, Rockville, Md.) were cultured at 37° C. under 5% CO2 humid conditions. NK-92 cells were cultured in alpha-MEM media (Life Technologies, Karlsruhe, Germany) containing 10% Fetal Calf Serum (FCS, HyClone, Logan, Utah), 2 mM […], 100 μg/ml penicillin, 100 μg/ml streptomycin (Life Technologies). U937, A549 and HepG2 cells were cultured in RPMI media containing 10% Fetal Calf Serum.
Cells treated in EC-18 and PMA (Phobol 12-myristate 13-acetate) were lysed with cold SDS lysis buffer [(50 mM HEPES, 150 mM NaCl, 0.2 mM EDTA, 0.5% NP-40, 0.1% SDS, 1 mM Na3VO4, 10 mM NaF, and complete Protein Inhibitor Cocktail (Roche)] for 30 minutes on ice. After cell lysis, the aqueous solution was separated from the insoluble precipitate by centrifuging the cell lysates for 30 minutes at 13,000 rpm in a high-speed centrifuge. After protein quantification, the aqueous solution was separated in 10 to 12% SDS-PAGE by electrophoresis. Proteins separated in the gel were transferred into PVDF membrane (Millipore, Billerica, Mass., USA) at 100V for 2 hours. […]

Row | Compound | histopathological arthritis score of knee joint [1] | concentration of IL-6 in serum [1] | STAT-1 phosphorylation (STAT-1) | crushing of cartilage and increase of Pannus (stained arthritic tissue) ([1]; EC-18 500 mg/kg oral (G4), Remicade 20 mg/kg i.p. (G6), vs negative control (FIGS. 7 and 8))
1 | CN(Cc1cnc2nc(N)nc(N)c2n1)c1ccc(C(=O)N[C@@H](CCC(=O)O)C(=O)O)cc1 [Methothrexate, methotrexate] | reduced | reduced | – | –
2 | CCCCC/C=C\C/C=C\CCCCCCCC(=O)OC(COC(C)=O)COC(=O)CCCCCCCCCCCCCCC (stereo not drawn) [EC-18, 1-palmitoyl-2-linoleoyl-3-acetylglycerol] | – | – | does not inhibit | –
3 | Remicade: positive control 1, administered intraperitoneally at 20 mg/kg | reduced | reduced | – | reduced
